# Results from ChEMBL document CHEMBL1135522, “Novel retinoid X receptor antagonists: specific inhibition of retinoid synergism in RXR-RAR heterodimer actions” (2002).
# What was measured:
# [1] = tested on: HL-60; test: Percentage inhibition of human promyelocytic leukemia cells HL-60 differentiation induced by combined RAR and RXR agonists; Range is from 34-73; assay type: functional
# [2] = tested on: HL-60; test: Percentage of human promyelocytic leukemia cells HL-60 differentiation induced by Am80 RAR agonist; assay type: functional
SMILES,Inhibition [1] [%],Inhibition [2] [%]
CC1(C)CCC(C)(C)c2cc(N(CC3CC3)c3ncc(C(=O)O)cn3)ccc21,73,
CCCCCOc1cc2c(cc1N(C)c1ncc(C(=O)O)cn1)C(C)(C)CCC2(C)C,,44
